# Reference: ChEMBL document CHEMBL5518240 (J Med Chem, 2024)
# Tests used:
# [1] = test system: LNCaP; test: Potency index, ratio of ARV-110 IC50 to test compound IC50 for antiproliferative activity against AR positive human LNCaP cells assessed inhibition of cell growth measured after 4 days by CellTiter-Glo Luminescent cell viability assay; format: functional; settings: time 4 day
# [2] = test system: VCaP; test: Potency index, ratio of GNE-049 IC50 to test compound IC50 for antiproliferative activity against AR positive human VCaP cells assessed inhibition of cell growth measured after 4 days by CellTiter-Glo Luminescent cell viability assay; format: functional; settings: time 4 day
# [3] = AUC in male ICR mouse at 3 mg/kg, po measured upto 24 hrs by LC-MS/MS analysis; format: ADME, organism-based; settings: in vivo
# [4] = Efflux ratio of apparent permeability coefficient across basolateral to apical side over apical to basolateral side in human Caco-2 cells at 10 uM incubated for 120 mins by LC-MS/MS analysis; format: ADME, cell-based; settings: caco-2, 2 h
# [5] = target: T1, Protein cereblon/CREB-binding protein (Homo sapiens, UniProt Q92793+Q96SW2); test: PROTAC activity at CBP/CRBN in AR positive human VCaP cells assessed as maximal protein degradation at 333.3 nM incubated for 4 hrs by Western blot analysis relative to control; format: cell-based
# Target sequence in this assay (Q92793 2-2442 limits assumed): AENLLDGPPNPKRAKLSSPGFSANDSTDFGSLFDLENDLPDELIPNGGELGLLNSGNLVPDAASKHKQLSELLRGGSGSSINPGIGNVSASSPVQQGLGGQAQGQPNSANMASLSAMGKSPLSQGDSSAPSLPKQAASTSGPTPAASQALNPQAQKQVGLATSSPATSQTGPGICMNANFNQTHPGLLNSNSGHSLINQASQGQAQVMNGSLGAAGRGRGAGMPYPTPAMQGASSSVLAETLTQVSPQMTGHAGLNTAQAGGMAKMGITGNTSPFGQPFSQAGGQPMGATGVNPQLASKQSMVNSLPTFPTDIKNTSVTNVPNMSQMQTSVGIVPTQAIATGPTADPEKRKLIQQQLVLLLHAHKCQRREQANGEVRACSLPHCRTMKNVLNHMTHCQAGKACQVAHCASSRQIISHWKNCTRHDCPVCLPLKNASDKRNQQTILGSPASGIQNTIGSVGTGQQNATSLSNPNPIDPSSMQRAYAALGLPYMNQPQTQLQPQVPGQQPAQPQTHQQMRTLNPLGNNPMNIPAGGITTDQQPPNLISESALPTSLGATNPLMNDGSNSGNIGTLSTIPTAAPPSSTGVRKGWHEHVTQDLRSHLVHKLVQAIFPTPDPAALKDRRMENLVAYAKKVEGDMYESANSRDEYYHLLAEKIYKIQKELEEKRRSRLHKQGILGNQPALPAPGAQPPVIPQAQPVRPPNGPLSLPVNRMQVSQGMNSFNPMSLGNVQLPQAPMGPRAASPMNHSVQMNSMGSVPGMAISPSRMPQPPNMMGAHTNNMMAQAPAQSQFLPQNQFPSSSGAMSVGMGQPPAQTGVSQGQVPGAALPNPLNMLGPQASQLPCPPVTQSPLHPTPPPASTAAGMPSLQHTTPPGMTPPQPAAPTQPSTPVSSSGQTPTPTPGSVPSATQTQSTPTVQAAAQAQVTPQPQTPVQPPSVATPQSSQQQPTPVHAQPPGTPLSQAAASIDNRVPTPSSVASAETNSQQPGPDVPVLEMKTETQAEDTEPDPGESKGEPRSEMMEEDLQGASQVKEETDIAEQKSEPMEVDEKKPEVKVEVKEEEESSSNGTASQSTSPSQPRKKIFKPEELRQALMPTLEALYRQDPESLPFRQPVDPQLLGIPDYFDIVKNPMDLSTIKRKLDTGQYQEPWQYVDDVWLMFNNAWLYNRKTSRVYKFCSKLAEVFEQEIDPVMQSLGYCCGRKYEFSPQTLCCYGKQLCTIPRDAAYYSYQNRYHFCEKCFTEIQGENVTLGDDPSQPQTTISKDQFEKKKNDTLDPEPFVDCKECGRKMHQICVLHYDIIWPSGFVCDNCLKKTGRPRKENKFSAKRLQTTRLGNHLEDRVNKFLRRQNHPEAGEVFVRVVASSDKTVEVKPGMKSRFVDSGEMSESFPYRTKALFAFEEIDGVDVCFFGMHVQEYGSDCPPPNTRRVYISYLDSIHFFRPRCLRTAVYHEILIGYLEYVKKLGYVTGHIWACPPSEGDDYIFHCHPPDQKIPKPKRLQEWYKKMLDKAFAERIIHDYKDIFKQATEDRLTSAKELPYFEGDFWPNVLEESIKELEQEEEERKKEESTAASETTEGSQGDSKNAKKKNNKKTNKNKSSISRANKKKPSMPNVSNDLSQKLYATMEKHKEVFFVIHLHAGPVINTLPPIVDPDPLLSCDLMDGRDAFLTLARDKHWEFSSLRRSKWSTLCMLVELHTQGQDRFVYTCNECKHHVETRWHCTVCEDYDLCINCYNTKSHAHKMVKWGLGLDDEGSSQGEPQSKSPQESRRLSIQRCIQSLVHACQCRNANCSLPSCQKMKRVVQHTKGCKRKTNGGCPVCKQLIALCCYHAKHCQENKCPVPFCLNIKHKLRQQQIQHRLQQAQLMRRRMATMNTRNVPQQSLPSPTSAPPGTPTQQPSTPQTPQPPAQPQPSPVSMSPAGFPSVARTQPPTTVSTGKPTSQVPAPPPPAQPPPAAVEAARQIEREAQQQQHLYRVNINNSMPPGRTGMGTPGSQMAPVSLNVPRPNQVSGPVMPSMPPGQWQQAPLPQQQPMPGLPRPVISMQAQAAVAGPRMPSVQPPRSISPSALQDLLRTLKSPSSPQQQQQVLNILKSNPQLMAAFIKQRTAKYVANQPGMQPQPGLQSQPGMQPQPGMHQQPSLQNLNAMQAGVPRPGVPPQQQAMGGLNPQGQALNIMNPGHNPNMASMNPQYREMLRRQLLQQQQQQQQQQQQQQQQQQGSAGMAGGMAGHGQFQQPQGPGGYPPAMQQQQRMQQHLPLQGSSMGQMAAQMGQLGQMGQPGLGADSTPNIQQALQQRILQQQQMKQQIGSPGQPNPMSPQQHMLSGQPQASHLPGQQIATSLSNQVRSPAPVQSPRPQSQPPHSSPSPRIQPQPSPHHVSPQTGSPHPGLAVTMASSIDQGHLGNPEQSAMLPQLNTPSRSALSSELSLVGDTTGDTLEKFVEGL
# Target sequence in this assay (Q96SW2 whole entry partner): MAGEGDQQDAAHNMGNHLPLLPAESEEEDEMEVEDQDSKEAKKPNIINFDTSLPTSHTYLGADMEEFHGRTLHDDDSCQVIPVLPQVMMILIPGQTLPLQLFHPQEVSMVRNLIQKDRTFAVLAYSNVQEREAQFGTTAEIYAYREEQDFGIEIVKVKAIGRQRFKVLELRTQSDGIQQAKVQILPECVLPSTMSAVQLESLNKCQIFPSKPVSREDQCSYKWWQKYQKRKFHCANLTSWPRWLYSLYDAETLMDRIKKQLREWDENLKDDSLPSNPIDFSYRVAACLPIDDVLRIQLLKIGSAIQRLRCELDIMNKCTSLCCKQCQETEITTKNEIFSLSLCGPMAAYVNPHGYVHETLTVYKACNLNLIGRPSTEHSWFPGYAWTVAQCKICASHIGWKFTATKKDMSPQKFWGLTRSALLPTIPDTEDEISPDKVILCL
# [6] = target: T2, Protein cereblon/Histone acetyltransferase p300 (Homo sapiens, UniProt Q09472+Q96SW2); test: PROTAC activity at p300/CRBN in human 22Rv1 cells assessed as maximal protein degradation at 1 uM incubated for 4 hrs by Western blot analysis relative to control; format: cell-based
# [7] = Cmax in male ICR mouse at 3 mg/kg, po measured upto 24 hrs by LC-MS/MS analysis; format: ADME, organism-based; settings: in vivo
# [8] = test system: CWR22R; test: Potency index, ratio of GNE-049 IC50 to test compound IC50 for antiproliferative activity against AR positive human 22Rv1 cells assessed inhibition of cell growth measured after 4 days by CellTiter-Glo Luminescent cell viability assay; format: functional; settings: time 4 day
# [9] = test system: VCaP; test: Reduction in c-Myc gene expression in AR positive human VCaP cells assessed as reduction in mRNA level measured after 6 hrs by qRT-PCT analysis relative to control; format: functional, cell-based; settings: dose 0.1-1000 nM
# [10] = Half life in male ICR mouse at 3 mg/kg, po measured upto 24 hrs by LC-MS/MS analysis; format: ADME, organism-based; settings: in vivo
# [11] = target: T2, Protein cereblon/Histone acetyltransferase p300; test: PROTAC activity at p300/CRBN in AR positive human VCaP cells assessed as maximal protein degradation at 333 nM incubated for 4 hrs by Western blot analysis relative to control; format: cell-based
# [12] = target: T1, Protein cereblon/CREB-binding protein; test: PROTAC activity at CBP/CRBN in AR positive human VCaP cells assessed as maximal protein degradation at 111.1 nM incubated for 4 hrs by Western blot analysis relative to control; format: cell-based
# Target sequence in this assay (Q92793 2-2442 limits assumed): as the sequence (Q92793 2-2442 limits assumed) above
# Target sequence in this assay (Q96SW2 whole entry partner): as the sequence (Q96SW2 whole entry partner) above
# [13] = Reduction in AR gene expression in AR positive human LNCaP cells assessed as reduction in mRNA level at 10 nM measured after 6 hrs by qRT-PCT analysis relative to control; format: functional
# [14] = Toxicity in CB17 SCID mouse xenografted with human VCaP cells assessed as signs of toxicity at 0.3 to 1 mg/kg, po qd scheduled 5 days in a week measured on day 63; format: organism-based; settings: in vivo, 120 h, dose 0.3-1 mg/kg, time 5 day
# [15] = Reduction in c-Myc gene expression in AR positive human VCaP cells assessed as reduction in mRNA level at 1 nM measured after 6 hrs by qRT-PCT analysis relative to control; format: functional
# [16] = Plasma concentration in CB17 SCID mouse xenografted with human VCaP cells at 3 mg/kg, po measured after 24 hrs by LC-MS/MS analysis; format: ADME, organism-based
# [17] = Toxicity in CB17 SCID mouse xenografted with human VCaP cells assessed as weight loss at 0.3 to 1 mg/kg, po qd scheduled 5 days in a week measured on day 63; format: organism-based; settings: in vivo, 1512 h, dose 0.3-1 mg/kg, time 63 day
# [18] = target: T2, Protein cereblon/Histone acetyltransferase p300; test: PROTAC activity at p300/CRBN in human LNCaP cells assessed as protein degradation incubated for 4 hrs by Western blot analysis; format: cell-based
# [19] = test system: CWR22R; test: Antiproliferative activity against AR positive human 22Rv1 cells assessed inhibition of cell growth measured after 4 days by CellTiter-Glo Luminescent cell viability assay; format: functional, cell-based; settings: 22Rv1, 96 h
# [20] = target: T1, Protein cereblon/CREB-binding protein; test: In vivo PROTAC activity at CBP/CRBN in human VCaP cells xenografted in SCID mouse assessed as reduction in CBP protein at 3 mg/kg, po measured after 3 hrs; format: functional, organism-based; design: scale not given: the % may be the effect or the level left
# Target sequence in this assay (Q92793 2-2442 limits assumed): as the sequence (Q92793 2-2442 limits assumed) above
# Target sequence in this assay (Q96SW2 whole entry partner): as the sequence (Q96SW2 whole entry partner) above
# [21] = target: T1, Protein cereblon/CREB-binding protein; test: PROTAC activity at CBP/CRBN in AR positive human VCaP cells assessed as maximal protein degradation at 0.15 nM incubated for 4 hrs by Western blot analysis relative to control; format: cell-based
# Target sequence in this assay (Q92793 2-2442 limits assumed): as the sequence (Q92793 2-2442 limits assumed) above
# Target sequence in this assay (Q96SW2 whole entry partner): as the sequence (Q96SW2 whole entry partner) above
# [22] = Reduction in c-Myc gene expression in AR positive human 22Rv1 cells assessed as reduction in mRNA level at 10 nM measured after 6 hrs by qRT-PCT analysis relative to control; format: functional, CWR22R
# [23] = Plasma concentration in CB17 SCID mouse xenografted with human VCaP cells at 3 mg/kg, po measured after 3 hrs by LC-MS/MS analysis; format: ADME, organism-based
# [24] = Reduction in KLK3 gene expression in AR positive human LNCaP cells assessed as reduction in mRNA level at 10 nM measured after 6 hrs by qRT-PCT analysis relative to control; format: functional
# [25] = Half life in male ICR mouse at 1 mg/kg, iv measured upto 24 hrs by LC-MS/MS analysis; format: ADME, organism-based; settings: in vivo
# [26] = Apparent permeability coefficient across apical to basolateral side in human Caco-2 cells at 10 uM incubated for 120 mins by LC-MS/MS analysis; format: ADME, cell-based; settings: caco-2, 2 h
# [27] = test system: VCaP; test: Antitumor activity against human VCaP cells xenografted in CB17 SCID mouse model assessed as tumor growth inhibition at 1 mg/kg, po qd scheduled 5 days in a week measured on day 63; format: functional; settings: 1512 h, time 63 day, read-out: TGI
# [28] = test system: LNCaP; test: Reduction in c-Myc gene expression in AR positive human LNCaP cells assessed as reduction in mRNA level measured after 6 hrs by qRT-PCT analysis relative to control; format: functional, cell-based; settings: dose 0.1-1000 nM
# [29] = target: T2, Protein cereblon/Histone acetyltransferase p300; test: PROTAC activity at p300/CRBN in human 22Rv1 cells assessed as reduction in protein level at 100 nM incubated for 4 hrs by multiplexed quantitative proteomics analysis relative to control; format: cell-based; design: scale not given: the % may be the effect or the level left
# [30] = target: T1, Protein cereblon/CREB-binding protein; test: PROTAC activity at CBP/CRBN in human 22Rv1 cells assessed as maximal protein degradation at 1 uM incubated for 4 hrs by Western blot analysis relative to control; format: cell-based
# Target sequence in this assay (Q92793 2-2442 limits assumed): as the sequence (Q92793 2-2442 limits assumed) above
# Target sequence in this assay (Q96SW2 whole entry partner): as the sequence (Q96SW2 whole entry partner) above
# [31] = target: T1, Protein cereblon/CREB-binding protein; test: PROTAC activity at CBP/CRBN in human 22Rv1 cells assessed as protein degradation incubated for 4 hrs by Western blot analysis; format: cell-based
# [32] = Reduction in AR gene expression in AR positive human VCaP cells assessed as reduction in mRNA level at 1 nM measured after 6 hrs by qRT-PCT analysis relative to control; format: functional
# [33] = Apparent permeability coefficient across basolateral to apical side in human Caco-2 cells at 10 uM incubated for 120 mins by LC-MS/MS analysis; format: ADME, cell-based; settings: caco-2, 2 h
# [34] = target: T1, Protein cereblon/CREB-binding protein; test: PROTAC activity at CBP/CRBN in AR positive human VCaP cells assessed as maximal protein degradation at 0.46 nM incubated for 4 hrs by Western blot analysis relative to control; format: cell-based
# Target sequence in this assay (Q92793 2-2442 limits assumed): as the sequence (Q92793 2-2442 limits assumed) above
# Target sequence in this assay (Q96SW2 whole entry partner): as the sequence (Q96SW2 whole entry partner) above
compound,measurement,setting,value
CC(=O)N1CCc2c(c(N3CCCc4cc(-c5cnn(C)c5)c(C(F)F)cc43)nn2[C@H]2CC[C@H](CN3CCN(c4ccc5c(c4)C(=O)N(C4CCC(=O)NC4=O)C5=O)CC3)CC2)C1 (some centres undefined),Ratio IC50,[1],>50
same,Ratio IC50,[2],100
same,AUC at 24 h,[3],15500 ng·h/mL
same,Ratio,[4],1.2
same,Activity,[5],78%
same,Emax,[6],91%
same,Cmax,[7],2490 ng/mL
same,Ratio IC50,[8],100
same,inhibition,[9],Dose-Dependent Effect
same,half-life,[10],2.6 h
same,Activity,[11],94%
same,Activity,[12],94%
same,inhibition at 0.01 µM,[13],67%
same,Activity,[14],Non-Toxic
same,inhibition at 0.001 µM,[15],> 95%
same,concentration at 24 h,[16],21 ng/mL
same,Activity,[17],Non-Toxic
same,DC50,[18],0.4 nM
same,IC50,[19],1.2 nM
same,Activity,[20],> 95%
same,Activity,[21],15%
same,inhibition at 0.01 µM,[22],> 95%
same,concentration at 3 h,[23],355 ng/mL
same,inhibition at 0.01 µM,[24],70%
same,half-life,[25],2.8 h
same,Papp,[26],2.8 10^-6 cm/s
same,inhibition in vivo at 1 mg/kg,[27],87%
same,inhibition,[28],Dose-Dependent Effect
same,Activity,[29],79%
same,Emax,[30],93%
same,DC50,[31],0.2 nM
same,inhibition at 0.001 µM,[32],77%
same,Papp,[33],2.3 10^-6 cm/s
same,Activity,[34],76%
